Where a chain is given by its changes, count along the chain named. Several values for one entry are separate records, joined by “and”; a condition that tells them apart may be missing. Equal entries are not always repeated. One block for each compound: values may come before it.
Assays:
σ1 receptors = σ1 receptors (Cavia porcellus, UniProt Q60492)
Protocol: In these assays, the novel sigma ligands were dissolved in N,N-dimethylformamide (DMF), DMSO or ethanol, and then diluted in 50 mM Tris-HCl buffer containing 150 mM NaCl and 100 mM EDTA at pH 7.4 prior to performing the σ1 and σ2 receptor binding assays. […] The samples were harvested and filtered rapidly through a 96-well fiber glass filter plate (millipore, Billerica, Mass.) that had been presoaked with 100 μL of 50 mM Tris-HCl buffer at pH 8.0 for 1 h.
The Ki values were determine from Scatchard plots.

σ2 receptors [1] = target: T1, σ2 receptors (Rattus norvegicus, UniProt Q5U3Y7); test: σ2 receptor binding assay, [^3H]DTG in the presence of (+)-pentazocine, rat liver membrane homogenates; conditions: for σ1:σ2 Ratio: ratio of Ki values
T1 construct: conducted using rat liver membrane homogenates; from tissue; host or cells: rat liver membrane homogenates
T1 sequence (Q5U3Y7 1-176): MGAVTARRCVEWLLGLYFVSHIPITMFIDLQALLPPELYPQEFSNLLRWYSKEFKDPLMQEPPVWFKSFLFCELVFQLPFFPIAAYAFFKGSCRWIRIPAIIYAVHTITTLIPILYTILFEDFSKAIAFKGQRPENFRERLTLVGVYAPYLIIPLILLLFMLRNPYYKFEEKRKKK
Protocol: The incubation time was 120 min at room temperature. […] All other procedures were identical to those described for the σ1 receptor binding assay above.

EMT-6 tumors = test: Biodistribution of 18F-labeled ligands in mice bearing EMT-6 tumors; type: in vivo, female Balb/c mice; conditions: for clearance from the blood (in words): mouse, in vivo
Protocol: This example illustrates in vivo evaluation of compounds of the present teachings. All animal experiments were conducted in compliance with the Guidelines for the Care and Use of Research Animals established by Washington University's Animal Studies Committee. EMT-6 mouse mammary adenocarcinoma cells (5×10^5 cells in 100 uL of phosphate-buffered saline) were implanted subcutaneously in the scapular region of female Balb/c mice (˜2-month old and 17-22 g; Charles River Laboratories). […] Groups of at least 4 mice were used for each time point. […] After counting, the percentage of the injected dose per gram of tissue (%ID/g) was calculated. The tumor/organ ratios were calculated by dividing the %ID/g of the tumor by the %ID/g of each organ.

σ2 receptors [2] = target: T2, σ2 receptors (Mus musculus, UniProt Q8VD00); test: Blocking study: co-injection of 1 mg/kg YUN-143 in EMT-6 tumor-bearing mice; type: in vivo; conditions: 1 mg/kg YUN-143, 1 h post-injection
T2 construct: from tissue; host or cells: EMT-6 tumours in female Balb/c mice, in vivo
T2 sequence (Q8VD00 1-176): T1 sequence (Q5U3Y7 1-176) with V4L, T5A, M26L, L33V, F71L, V105A, I118L, I127V, N136S, F169Y
Protocol: These blocking studies in tumor-bearing mice were conducted by co-injecting 1 mg/kg of cold N-(4-fluorobenzyl) piperidinyl-4-(3-bromophenyl)acetamide (YUN-143) with [^18F]3c or [^18F]3f.

[3] = 60 min (1 h) after i.v. injection
[4] = 120 min (2 h) after i.v. injection

Chain of σ1 receptors (Q60492 whole entry): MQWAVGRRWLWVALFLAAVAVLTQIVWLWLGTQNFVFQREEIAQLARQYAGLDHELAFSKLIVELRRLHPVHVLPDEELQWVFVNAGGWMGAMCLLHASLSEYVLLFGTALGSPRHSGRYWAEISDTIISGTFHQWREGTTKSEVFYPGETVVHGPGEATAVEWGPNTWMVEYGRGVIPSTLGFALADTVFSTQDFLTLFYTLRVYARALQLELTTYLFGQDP

Ki (σ1 receptors): 1080 nM
Ki (σ2 receptors [1]): 0.65 ± 0.22 nM
σ1:σ2 Ratio (σ2 receptors [1]): 1,656
Structure (SMILES): COc1cc2c(cc1OC)CN(CCCCNC(=O)c1cc(Br)ccc1OCCF)CC2 [compound 3d, N-[4-(6,7-dimethoxy-3,4-dihydro-1H-isoquinolin-2-yl)-butyl]-2-(2-fluoro-ethoxy)-5-bromo-benzamide]

Biodistribution: blood (EMT-6 tumors; 5 min after i.v. injection): 2.49 ± 0.49 %ID/g
Biodistribution: bone (EMT-6 tumors; 5 min after i.v. injection): 2.49 ± 0.19 %ID/g
Biodistribution: brain (EMT-6 tumors; 5 min after i.v. injection): 0.76 ± 0.06 %ID/g
Biodistribution: fat (EMT-6 tumors; 5 min after i.v. injection): 1.95 ± 0.33 %ID/g
Biodistribution: heart (EMT-6 tumors; 5 min after i.v. injection): 3.73 ± 0.15 %ID/g
Biodistribution: kidney (EMT-6 tumors; 5 min after i.v. injection): 29.18 ± 1.92 %ID/g
Biodistribution: liver (EMT-6 tumors; 5 min after i.v. injection): 23.33 ± 4.22 %ID/g
Biodistribution: lung (EMT-6 tumors; 5 min after i.v. injection): 10.26 ± 0.71 %ID/g
Biodistribution: muscle (EMT-6 tumors; 5 min after i.v. injection): 1.86 ± 0.08 %ID/g
Biodistribution: tumor (tumor uptake) (EMT-6 tumors; 5 min after i.v. injection): 3.67 ± 0.45 %ID/g
Biodistribution: blood (EMT-6 tumors; 30 min after i.v. injection): 1.16 ± 0.10 %ID/g
Biodistribution: bone (EMT-6 tumors; 30 min after i.v. injection): 0.96 ± 0.15 %ID/g
Biodistribution: brain (EMT-6 tumors; 30 min after i.v. injection): 0.27 ± 0.05 %ID/g
Biodistribution: fat (EMT-6 tumors; 30 min after i.v. injection): 0.59 ± 0.13 %ID/g
Biodistribution: heart (EMT-6 tumors; 30 min after i.v. injection): 1.15 ± 0.06 %ID/g
Biodistribution: kidney (EMT-6 tumors; 30 min after i.v. injection): 6.86 ± 0.45 %ID/g
Biodistribution: liver (EMT-6 tumors; 30 min after i.v. injection): 10.51 ± 0.87 %ID/g
Biodistribution: lung (EMT-6 tumors; 30 min after i.v. injection): 2.36 ± 0.19 %ID/g
Biodistribution: muscle (EMT-6 tumors; 30 min after i.v. injection): 0.70 ± 0.19 %ID/g
Biodistribution: tumor (tumor uptake) (EMT-6 tumors; 30 min after i.v. injection): 2.54 ± 0.27 %ID/g
Biodistribution: tumor (tumor uptake) (EMT-6 tumors; [3]): 1.14 ± 0.10 %ID/g
Biodistribution: blood (EMT-6 tumors; 60 min after i.v. injection): 0.56 ± 0.08 %ID/g
Biodistribution: bone (EMT-6 tumors; 60 min after i.v. injection): 0.55 ± 0.07 %ID/g
Biodistribution: brain (EMT-6 tumors; 60 min after i.v. injection): 0.18 ± 0.03 %ID/g
Biodistribution: fat (EMT-6 tumors; 60 min after i.v. injection): 0.22 ± 0.04 %ID/g
Biodistribution: heart (EMT-6 tumors; 60 min after i.v. injection): 0.55 ± 0.07 %ID/g
Biodistribution: kidney (EMT-6 tumors; 60 min after i.v. injection): 2.51 ± 0.51 %ID/g
Biodistribution: liver (EMT-6 tumors; 60 min after i.v. injection): 4.14 ± 0.55 %ID/g
Biodistribution: lung (EMT-6 tumors; 60 min after i.v. injection): 0.88 ± 0.12 %ID/g
Biodistribution: muscle (EMT-6 tumors; 60 min after i.v. injection): 0.34 ± 0.05 %ID/g
Biodistribution: tumor (tumor uptake) (EMT-6 tumors; [4]): 0.64 %ID/g and 0.64 ± 0.10 %ID/g
Biodistribution: blood (EMT-6 tumors; 120 min after i.v. injection): 0.35 ± 0.05 %ID/g
Biodistribution: bone (EMT-6 tumors; 120 min after i.v. injection): 0.45 ± 0.11 %ID/g
Biodistribution: brain (EMT-6 tumors; 120 min after i.v. injection): 0.12 ± 0.02 %ID/g
Biodistribution: fat (EMT-6 tumors; 120 min after i.v. injection): 0.08 ± 0.02 %ID/g
Biodistribution: heart (EMT-6 tumors; 120 min after i.v. injection): 0.27 ± 0.04 %ID/g
Biodistribution: kidney (EMT-6 tumors; 120 min after i.v. injection): 0.87 ± 0.13 %ID/g
Biodistribution: liver (EMT-6 tumors; 120 min after i.v. injection): 2.05 ± 0.43 %ID/g
Biodistribution: lung (EMT-6 tumors; 120 min after i.v. injection): 0.43 ± 0.07 %ID/g
Biodistribution: muscle (EMT-6 tumors; 120 min after i.v. injection): 0.24 ± 0.08 %ID/g
tumor:fat ratio (EMT-6 tumors; 2 h after i.v. injection): ~8
clearance from the blood (in words) (EMT-6 tumors): rapid clearance from the blood
decrease in the tumor:fat ratio on co-injection of YUN-143 (σ2 receptors [2]): ~50%
decrease in the tumor:muscle ratio on co-injection of YUN-143 (σ2 receptors [2]): ~50%
Structure (SMILES): COc1cc2c(cc1OC)CN(CCCCNC(=O)c1cc(C)ccc1OCC[18F])CC2 [[^18F]3c]

Ki (σ1 receptors): 2150 nM
Ki (σ2 receptors [1]): 0.26 ± 0.07 nM
σ1:σ2 Ratio (σ2 receptors [1]): 8,190
Structure (SMILES): COc1cc2c(cc1OC)CN(CCCCNC(=O)c1cc(I)cc(OC)c1OCCF)CC2 [compound 3f]

Biodistribution: blood (EMT-6 tumors; 5 min after i.v. injection): 1.82 ± 0.25 %ID/g
Biodistribution: bone (EMT-6 tumors; 5 min after i.v. injection): 2.23 ± 0.56 %ID/g
Biodistribution: brain (EMT-6 tumors; 5 min after i.v. injection): 0.71 ± 0.09 %ID/g
Biodistribution: fat (EMT-6 tumors; 5 min after i.v. injection): 4.13 ± 0.86 %ID/g
Biodistribution: heart (EMT-6 tumors; 5 min after i.v. injection): 5.60 ± 0.45 %ID/g
Biodistribution: kidney (EMT-6 tumors; 5 min after i.v. injection): 19.98 ± 1.66 %ID/g
Biodistribution: liver (EMT-6 tumors; 5 min after i.v. injection): 15.21 ± 2.21 %ID/g
Biodistribution: lung (EMT-6 tumors; 5 min after i.v. injection): 18.47 ± 3.07 %ID/g
Biodistribution: muscle (EMT-6 tumors; 5 min after i.v. injection): 2.50 ± 0.33 %ID/g
Biodistribution: tumor (tumor uptake) (EMT-6 tumors; 5 min after i.v. injection): 3.05 ± 0.43 %ID/g
Biodistribution: blood (EMT-6 tumors; 30 min after i.v. injection): 1.23 ± 0.28 %ID/g
Biodistribution: bone (EMT-6 tumors; 30 min after i.v. injection): 2.01 ± 0.53 %ID/g
Biodistribution: brain (EMT-6 tumors; 30 min after i.v. injection): 0.27 ± 0.04 %ID/g
Biodistribution: fat (EMT-6 tumors; 30 min after i.v. injection): 1.36 ± 0.50 %ID/g
Biodistribution: heart (EMT-6 tumors; 30 min after i.v. injection): 1.54 ± 0.31 %ID/g
Biodistribution: kidney (EMT-6 tumors; 30 min after i.v. injection): 7.73 ± 2.25 %ID/g
Biodistribution: liver (EMT-6 tumors; 30 min after i.v. injection): 10.73 ± 2.98 %ID/g
Biodistribution: lung (EMT-6 tumors; 30 min after i.v. injection): 3.75 ± 0.58 %ID/g
Biodistribution: muscle (EMT-6 tumors; 30 min after i.v. injection): 0.73 ± 0.14 %ID/g
Biodistribution: tumor (tumor uptake) (EMT-6 tumors; 30 min after i.v. injection): 3.11 ± 0.16 %ID/g
Biodistribution: tumor (tumor uptake) (EMT-6 tumors; [3]): 2.15 %ID/g and 2.15 ± 0.25 %ID/g
Biodistribution: blood (EMT-6 tumors; 60 min after i.v. injection): 0.65 ± 0.09 %ID/g
Biodistribution: bone (EMT-6 tumors; 60 min after i.v. injection): 0.93 ± 0.16 %ID/g
Biodistribution: brain (EMT-6 tumors; 60 min after i.v. injection): 0.14 ± 0.02 %ID/g
Biodistribution: fat (EMT-6 tumors; 60 min after i.v. injection): 0.47 ± 0.07 %ID/g
Biodistribution: heart (EMT-6 tumors; 60 min after i.v. injection): 0.69 ± 0.06 %ID/g
Biodistribution: kidney (EMT-6 tumors; 60 min after i.v. injection): 3.50 ± 0.80 %ID/g
Biodistribution: liver (EMT-6 tumors; 60 min after i.v. injection): 5.57 ± 0.31 %ID/g
Biodistribution: lung (EMT-6 tumors; 60 min after i.v. injection): 1.51 ± 0.13 %ID/g
Biodistribution: muscle (EMT-6 tumors; 60 min after i.v. injection): 0.40 ± 0.07 %ID/g
Biodistribution: tumor (tumor uptake) (EMT-6 tumors; [4]): 1.15 %ID/g and 1.15 ± 0.23 %ID/g
Biodistribution: blood (EMT-6 tumors; 120 min after i.v. injection): 0.28 ± 0.01 %ID/g
Biodistribution: bone (EMT-6 tumors; 120 min after i.v. injection): 0.59 ± 0.09 %ID/g
Biodistribution: brain (EMT-6 tumors; 120 min after i.v. injection): 0.08 ± 0.01 %ID/g
Biodistribution: fat (EMT-6 tumors; 120 min after i.v. injection): 0.17 ± 0.05 %ID/g
Biodistribution: heart (EMT-6 tumors; 120 min after i.v. injection): 0.39 ± 0.04 %ID/g
Biodistribution: kidney (EMT-6 tumors; 120 min after i.v. injection): 1.34 ± 0.10 %ID/g
Biodistribution: liver (EMT-6 tumors; 120 min after i.v. injection): 2.61 ± 0.69 %ID/g
Biodistribution: lung (EMT-6 tumors; 120 min after i.v. injection): 0.74 ± 0.03 %ID/g
Biodistribution: muscle (EMT-6 tumors; 120 min after i.v. injection): 0.15 ± 0.01 %ID/g
tumor:fat ratio (EMT-6 tumors; 2 h after i.v. injection): ~7
tumor:muscle ratio (EMT-6 tumors; 2 h after i.v. injection): ~8
clearance from the blood (in words) (EMT-6 tumors): rapid clearance from the blood
decrease in the tumor:fat ratio on co-injection of YUN-143 (σ2 receptors [2]): ~50%
decrease in the tumor:muscle ratio on co-injection of YUN-143 (σ2 receptors [2]): ~50%
Structure (SMILES): COc1cc2c(cc1OC)CN(CCCCNC(=O)c1cc(I)cc(OC)c1OCC[18F])CC2 [[^18F]3f]
